Experimental data taken from paper PMC9414676, “Experimental Studies Indicate That ST-2223, the Antagonist of Histamine H3 and Dopamine D2/D3 Receptors, Restores Social Deficits and Neurotransmission Dysregulation in Mouse Model of Autism” (Pharmaceuticals, 2022).

How the values were obtained:
[1] = tested on: dopamine levels in BTBR mice brain; assay: Dopamine levels by LC-MS/MS in brain regions; format: in vivo; set-up: key to Dopamine level: ↔: No significant alterations; ↑: significant increase; ↑↑: additional significant increase vs. ST-2223-treated mice; ↓: significant decrease; conditions: for Dopamine level: ST-2223 5 mg/kg i.p. chronic, vs VEH-treated BTBR mice
Method: (§1) All the mice were randomly divided into nine groups of 5–7 mice each. The mice were injected intraperitonially once daily for 21 days with different doses of ST2223 (2.5, 5, and 10 mg/kg, i.p.), ARP 1 mg/kg or vehicle (1% DMSO in 0.9% normal saline). Group I, B6 mice were injected with vehicle served as control. Group II, BTBR mice were treated with vehicle. Groups III–V, BTBR mice received i.p. injections of different doses of ST2223 (2.5, 5, and 10 mg/kg, i.p.), respectively. Group VI, BTBR mice were injected with ARP (1 mg/kg, i.p.). For abrogation studies, Group VII, BTBR mice were treated with ST2223 (5 mg/kg, i.p.) along with RAM (10 mg/kg, i.p.). Group VIII, B6 mice were co-injected with vehicle and RAM (10 mg/kg, i.p). All treatments and vehicle (VEH) were administered 30–45 min before each behavioral test. The doses of these drugs were selected based on previous reports. Behavioral testing was performed between 9:00 am and 3:00 pm in an order randomized by group and in the following sequence: social approach test (SAT) and open field locomotor test (OFL). The chronic treatment started one week before the behavioral test and was continued for a total of 21 days as described above (Figure 7). Following behavioral tests, i.e., on day 21 of systemic treatment, five of the animals were sacrificed. The animals were deeply anesthetized with pentobarbital (40 mg/kg, i.p., body weight). To wash out the blood, cardiac perfusion was carried out using 0.01 M phosphate-buffered saline (PBS) at pH 7.4. The brains were quickly removed and placed on an ice plate, where the cerebellum, hippocampus, prefrontal cortex, and striatum were excised from the brain and snap-frozen in liquid nitrogen for later LC-MS/MS analysis.
Perfusion was done on anesthetized animals using 1X PBS as described previously. Different regions of the brain were snap frozen. Frozen tissues were then weighed and homogenized in a 10-fold volume of acetonitrile. For 50mg of tissue, 500 µL of acetonitrile and Internal standard mix were added and homogenized. Homogenates were centrifuged at 15,000 rcf for 15 min at 4 °C. Tissue levels of dopamine, acetylcholine, histamine, and their metabolites were assessed using LC-MS/MS. LC-MS/MS analysis was conducted utilizing Waters BEH C18 COLUMN (2.1 × 100 mm, 1.7 µm) using Waters Acquity UPLC Binary Solvent Manager and FTN Sample Manager. The system was run in gradient mode with mobile phase A consisting of LC-MS GRADE WATER + 0.1% FORMIC ACID and mobile phase B consisting of 100% ACETONITRILE. Mobile phase was duly filtered through 0.2 µm filter and degassed ultrasonically for 15 min prior to use. Separations were performed at room temperature with 0.3 mL/min flow rate gradient starting with 90% of A for up to 0.5 min. Then, % of A was decreased gradually until it reached 20% at 2.5 min after which at 3 min %A was brought back to the initial condition and left for equilibration for 2 more minutes before the next injection (total 5 min run time). The injection volume was kept at 1 µL. Mass spectrometric detection was performed in multiple reaction monitoring (MRM) mode with positive electrospray ionization (ESI+) on Xevo TQS mass spectrometer (Waters, Milford, MA) equipped with an electrospray ionization (ESI) source and triple quadrupole mass analyzer. MRM transitions and instrument parameters were set by tuning the instrument by infusing each analyte. MRM transitions taken for quantification were 146.2 > 87.1 for Acetylcholine, 112.2 > 95.2 for Histamine, 154.1 > 137.2 for Dopamine, 150.2 > 91.3 for Acetylcholine D4, and […] > 99.3 for Histamine D4. Capillary Voltage, Source Offset, Source Temperature, De solvation Temperature, Cone Gas Flow, De solvation Gas Flow, Collision Gas Flow, Nebulizer Gas Flow were set as 3.0 (kV), 60.0 (V), 150 (°C), 550 (°C), 150 (L/Hr), 1000 (L/Hr), 0.13 (mL/min), and 7 (Bar), correspondingly. […]

BTBR mice [2] = assay: Social approach test (SAT), sociability (novel mouse vs novel object); format: in vivo
Method: as §1
The social approach test (SAT) was performed using an automated three-chamber device (EthoVision® Software, Noldus, The Netherlands) as previously described. The transparent polycarbonate chamber is rectangular and is composed of three interconnected partitions (homemade), which are separated by two sliding doors. In brief, after 10 min of habituation, the study mouse was placed in the central chamber with the doors opened, and the mouse was given the choice to interact with either an empty plastic cup located in one side chamber, referred to as a novel object (NO), or a similar plastic cup with an unfamiliar mouse inside it located in the opposite chamber, referred to as a novel mouse (NM), which was matched in age, sex, and strain with test mouse. To avoid innate side preferences, the plastic cup for NO and NM were randomly placed in either chamber and the placement was changed between studies and between mice. For 10 min, the test mouse was allowed to explore all three chambers and cups, and the time spent interacting with NO and NM (sniffing) was automatically recorded by EthoVision® Software. Immediately after this session, a novel mouse is kept in the empty cup and is referred to as novel mouse (NM), and the mouse in the other cup from the earlier session is referred to as familiar mouse (FM). The study mouse is allowed to explore the three chambers for 10 min, and the time spent for interacting with both mice was automatically recorded, to assess social novelty preference. Eight groups of 7 mice/group were used for the SAT. To allow the direct comparison of social behavior between the treated groups, the sociability index (SI) and social novelty index (SNI) were calculated with the following formula, as previously described: SI=(Time exploring NM−Time exploring NO)/(Time exploring NM+Time exploring NO) SNI=(Time exploring NM−Time exploring FM)/(Time exploring NM+Time exploring FM)

BTBR mice [3] = assay: Social approach test (SAT), social novelty preference (novel mouse vs familiar mouse); format: in vivo; conditions: for preference to novel mouse (NM) over familiar mouse (FM) vs VEH-treated BTBR mice: p < 0.001
Method: as §1
The social approach test (SAT) was performed using an automated three-chamber device (EthoVision® Software, Noldus, The Netherlands) as previously described. The transparent polycarbonate chamber is rectangular and is composed of three interconnected partitions (homemade), which are separated by two sliding doors. […] For 10 min, the test mouse was allowed to explore all three chambers and cups, and the time spent interacting with NO and NM (sniffing) was automatically recorded by EthoVision® Software. […] The study mouse is allowed to explore the three chambers for 10 min, and the time spent for interacting with both mice was automatically recorded, to assess social novelty preference. […] To allow the direct comparison of social behavior between the treated groups, the sociability index (SI) and social novelty index (SNI) were calculated with the following formula, as previously described: SI=(Time exploring NM−Time exploring NO)/(Time exploring NM+Time exploring NO) SNI=(Time exploring NM−Time exploring FM)/(Time exploring NM+Time exploring FM)

hH3R = target: T1, hH3R (Homo sapiens, UniProt Q9Y5N1); assay: [3H]Nα-methylhistamine binding assay, membranes of HEK cells stably expressing hH3R
T1 construct: expressed in transfected cells
Method: In vitro, ST-2223 was evaluated for its H3R affinity on membrane preparations of HEK-293 cells, which stably express the hH3R, by [^3H]N^α-methylhistamine displacement assays.

hD3R = target: T2, hD3R (Homo sapiens, UniProt P35462); assay: [3H]spiperone displacement assay, CHO cells expressing hD3Rs; format: binding; conditions: ratio of Ki values
T2 construct: expressed in transfected cells; host or cells: CHO cells (from the earlier reading's assay name)
T2 sequence (P35462 whole entry): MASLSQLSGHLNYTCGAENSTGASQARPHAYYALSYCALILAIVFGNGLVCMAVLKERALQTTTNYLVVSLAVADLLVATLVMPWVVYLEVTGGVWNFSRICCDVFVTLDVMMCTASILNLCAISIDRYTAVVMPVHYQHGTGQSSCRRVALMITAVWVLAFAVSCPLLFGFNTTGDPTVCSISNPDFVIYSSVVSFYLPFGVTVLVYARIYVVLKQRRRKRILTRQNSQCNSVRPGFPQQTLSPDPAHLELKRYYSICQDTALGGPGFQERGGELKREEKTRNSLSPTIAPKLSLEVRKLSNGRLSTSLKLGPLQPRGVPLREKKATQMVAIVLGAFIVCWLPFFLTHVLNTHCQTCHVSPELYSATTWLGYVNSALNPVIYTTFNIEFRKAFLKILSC

T1 sequence (Q9Y5N1 whole entry): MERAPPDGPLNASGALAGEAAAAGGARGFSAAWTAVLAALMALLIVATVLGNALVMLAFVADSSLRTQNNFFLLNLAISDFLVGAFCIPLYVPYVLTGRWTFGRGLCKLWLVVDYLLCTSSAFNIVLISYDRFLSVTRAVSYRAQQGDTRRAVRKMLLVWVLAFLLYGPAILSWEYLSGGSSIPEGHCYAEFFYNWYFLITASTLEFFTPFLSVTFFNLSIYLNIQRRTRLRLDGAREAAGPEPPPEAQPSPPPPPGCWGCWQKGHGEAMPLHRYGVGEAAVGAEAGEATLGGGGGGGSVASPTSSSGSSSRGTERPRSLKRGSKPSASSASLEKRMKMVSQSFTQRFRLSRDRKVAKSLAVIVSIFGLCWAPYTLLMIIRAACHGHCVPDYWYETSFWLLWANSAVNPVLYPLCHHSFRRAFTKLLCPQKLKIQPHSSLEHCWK

COc1ccccc1N1CCN(CCCCNC(=O)c2ccc3cc(OCCCN4CCCCC4)ccc3c2)CC1 [ST-2223, N-(4-(4-(2-methoxyphenyl)piperazin-1-yl)butyl)-6-(3-(piperidin-1-yl)propoxy)-2-naphthamide]
Dopamine level ([1]; Cerebellum): ↓ ^b | Dopamine level ([1]; Hippocampus): ↔ | Dopamine level ([1]; Prefrontal cortex): ↑ ^b | Dopamine level ([1]; Striatum): ↑ ^b | dopamine levels ([1]; prefrontal cortex and striatum, ST-2223 5 mg/kg chronic, p < 0.05): significantly increased the dopamine levels in both regions | time spent with novel mouse (NM) vs novel object (NO) (BTBR mice [2]; ST-2223 2.5 mg/kg i.p. chronic, p = 0.48): unsuccessful to exert remarked improvement | exploring time spent with NM vs VEH-treated BTBR mice (BTBR mice [2]; ST-2223 2.5 mg/kg i.p. chronic, p > 0.05): not a significant level | exploring time spent with NM vs VEH-treated BTBR mice (BTBR mice [2]; ST-2223 5 mg/kg i.p. chronic, p < 0.001): significantly improved exploring time spent with NM | time spent with novel mouse (NM) vs novel object (NO) (BTBR mice [2]; ST-2223 5 mg/kg i.p. chronic, p < 0.01): significantly enhanced time spent with the NM | sociability index (SI) vs VEH-treated BTBR mice (BTBR mice [2]; ST-2223 5 mg/kg i.p. chronic, p < 0.05): significant improvement in sociability | time spent with novel mouse (NM) vs novel object (NO) (BTBR mice [2]; ST-2223 10 mg/kg i.p. chronic, p = 0.53): unsuccessful to exert remarked improvement | social novelty index (SNI) (BTBR mice [3]; ST-2223 5 mg/kg i.p. chronic, no significant difference to control B6): significantly improved social novelty performance | preference to novel mouse (NM) over familiar mouse (FM) vs VEH-treated BTBR mice (BTBR mice [3]; ST-2223 5 mg/kg i.p. chronic): enhanced preference to stranger NM over FM | preference to novel mouse (NM) over familiar mouse (FM) vs VEH-treated BTBR mice (BTBR mice [3]; ST-2223 10 mg/kg i.p. chronic): enhanced preference to stranger NM over FM | Ki (hH3R): 4.6 nM | ratio of hD2Rs/hD3Rs (hD3R): 10
